The target of test [1] is T1, human TRPV1 (Homo sapiens (Human), UniProt Q8NER1). Description: Acid Activation Assay (pH 5.0, intracellular Ca2+, FLIPR). The class given is cell-based. As to conditions: percentage of the maximal pH 5.0-induced response remaining; recombinant HEK293 hTRPV1 cells; maximum concentration tested 37.5 μM. The procedure, abridged:
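HEK293 cells stably expressing recombinant hTRPV1, loaded with Calcium-4 dye 90-120 min at 25° C. Compounds added over a 12-point half-log range (top 37.5 μM), then pH 5.0 DPBS/MES challenge after 3 min; FLIPR peak fluorescence over baseline given as % of maximal pH 5.0 response.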

The target of test [2] is T1, human TRPV1. Description: Capsaicin Activation Assay (intracellular Ca2+, FLIPR). The class given is cell-based. Particulars: recombinant HEK293 cells expressing hTRPV1, 50 nM capsaicin. In outline: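 Stably transfected HEK293 cells expressing human TRPV1 cDNA, plated the day before in poly-D-lysine plates. Compounds serially diluted from 10 mM DMSO stocks; intracellular Ca2+ fluorescence read on FLIPR at 1 to 5 second intervals.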

Bounds are passed on as bounds.

Results on 26 molecules are retold here after patent publication US8969325B2, “TRPV1 antagonists” (AbbVie Inc., priority 2011, dated 2015).

T1 sequence (Q8NER1 whole entry): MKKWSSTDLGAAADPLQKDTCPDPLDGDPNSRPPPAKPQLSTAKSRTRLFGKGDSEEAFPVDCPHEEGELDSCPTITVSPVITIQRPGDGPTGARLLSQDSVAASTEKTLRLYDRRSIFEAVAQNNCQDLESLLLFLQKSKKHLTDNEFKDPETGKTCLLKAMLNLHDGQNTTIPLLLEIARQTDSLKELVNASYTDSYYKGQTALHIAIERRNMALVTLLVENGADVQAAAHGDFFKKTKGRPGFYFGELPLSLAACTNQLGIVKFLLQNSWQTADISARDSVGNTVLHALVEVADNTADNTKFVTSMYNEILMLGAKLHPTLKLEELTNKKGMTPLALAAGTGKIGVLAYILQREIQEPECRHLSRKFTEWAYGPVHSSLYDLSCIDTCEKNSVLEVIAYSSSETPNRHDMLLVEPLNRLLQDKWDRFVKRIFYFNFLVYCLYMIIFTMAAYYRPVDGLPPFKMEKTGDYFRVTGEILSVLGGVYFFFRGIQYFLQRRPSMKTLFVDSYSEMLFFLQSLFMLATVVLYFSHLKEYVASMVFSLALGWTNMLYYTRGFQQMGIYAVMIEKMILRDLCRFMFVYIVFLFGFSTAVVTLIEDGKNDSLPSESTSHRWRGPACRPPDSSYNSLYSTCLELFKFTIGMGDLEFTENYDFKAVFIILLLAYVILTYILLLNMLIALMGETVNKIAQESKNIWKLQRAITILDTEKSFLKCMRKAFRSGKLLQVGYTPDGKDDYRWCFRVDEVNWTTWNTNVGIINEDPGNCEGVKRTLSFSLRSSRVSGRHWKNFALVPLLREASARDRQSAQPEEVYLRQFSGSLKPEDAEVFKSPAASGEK

As usually defined, the IC50 is the concentration that inhibits the measured activity by half. With `CCC1(CC)C[C@@H](NC(=O)Nc2cccc3c2CNC(=O)N3C)c2cc(F)ccc2O1` [Example 155, 1-[(4R)-2,2-diethyl-6-fluoro-3,4-dihydro-2H-chromen-4-yl]-3-(1-methyl-2-oxo-1,2,3,4-tetrahydroquinazolin-5-yl)urea], the “human TRPV1 H^+ (max % remain)” value in test [1] came to 20%. Further, in test [2], the IC50 was 16 nM.

As to `CCCC1(CCC)C[C@@H](NC(=O)Nc2cccc3c2CNC(=O)N3C)c2cccc(F)c2O1` [Example 156, 1-[(4R)-8-fluoro-2,2-dipropyl-3,4-dihydro-2H-chromen-4-yl]-3-(1-methyl-2-oxo-1,2,3,4-tetrahydroquinazolin-5-yl)urea], the “human TRPV1 H^+ (max % remain)” value in test [1] was 67%. Also, the IC50 in test [2] came to 190 nM.

As for `CN1C(=O)NCc2c(NC(=O)N[C@@H]3CC(C)(C)Oc4ccc(F)cc43)cccc21` [Example 157, 1-[(4R)-6-fluoro-2,2-dimethyl-3,4-dihydro-2H-chromen-4-yl]-3-(1-methyl-2-oxo-1,2,3,4-tetrahydroquinazolin-5-yl)urea], in test [1], the “human TRPV1 H^+ (max % remain)” value is reported as 36%. For the same molecule, the 50% inhibitory concentration (IC50) in test [2] is 47 nM.

For `CN1C(=O)NCc2c(NC(=O)N[C@@H]3CCOc4cc(F)ccc43)cccc21` [Example 159, 1-[(4R)-7-fluoro-3,4-dihydro-2H-chromen-4-yl]-3-(1-methyl-2-oxo-1,2,3,4-tetrahydroquinazolin-5-yl)urea], in test [1], the “human TRPV1 H^+ (max % remain)” value came out at 21%. Further, the IC50 in test [2] is 600 nM.

Regarding `CN1C(=O)NCc2c(NC(=O)N[C@@H]3CCOc4cc(C(F)(F)F)ccc43)cccc21` [Example 160, 1-(1-methyl-2-oxo-1,2,3,4-tetrahydroquinazolin-5-yl)-3-[(4R)-7-(trifluoromethyl)-3,4-dihydro-2H-chromen-4-yl]urea], the “human TRPV1 H^+ (max % remain)” value in test [1] amounted to 23%. The IC50 in test [2] is 42 nM.

`CN1C(=O)NCc2c(NC(=O)NC3COc4cc(Cl)ccc4C3)cccc21` (stereo not shown) [Example 161, 1-(7-chloro-3,4-dihydro-2H-chromen-3-yl)-3-(1-methyl-2-oxo-1,2,3,4-tetrahydroquinazolin-5-yl)urea]: the “human TRPV1 H^+ (max % remain)” value in test [1] stood at 9%. The IC50 in test [2] came to 95 nM.

Regarding `CCN1C(=O)NCc2c(NC(=O)N[C@@H]3CC(CF)(CF)Oc4cc(Cl)ccc43)cccc21` [Example 162, 1-[(4R)-7-chloro-2,2-bis(fluoromethyl)-3,4-dihydro-2H-chromen-4-yl]-3-(1-ethyl-2-oxo-1,2,3,4-tetrahydroquinazolin-5-yl)urea], in test [1], the “human TRPV1 H^+ (max % remain)” value was 0%. For the same molecule, the concentration for half-maximal inhibition (IC50) in test [2] came to 130 nM.

Consider `CN1C(=O)NCc2c(NC(=O)N[C@@H]3C[C@](C)(CF)Oc4ccccc43)cccc21` [Example 163, 1-[(2R,4R)-2-(fluoromethyl)-2-methyl-3,4-dihydro-2H-chromen-4-yl]-3-(1-methyl-2-oxo-1,2,3,4-tetrahydroquinazolin-5-yl)urea], for which the “human TRPV1 H^+ (max % remain)” value in test [1] is 33%. Also, the IC50 in test [2] was found to be 220 nM.

With `CN1C(=O)NCc2c(NC(=O)N[C@@H]3C[C@@](C)(CF)Oc4ccccc43)cccc21` [Example 164, 1-[(2S,4R)-2-(fluoromethyl)-2-methyl-3,4-dihydro-2H-chromen-4-yl]-3-(1-methyl-2-oxo-1,2,3,4-tetrahydroquinazolin-5-yl)urea], in test [1], the “human TRPV1 H^+ (max % remain)” value turned out to be 35%. The half-inhibitory concentration (IC50) in test [2] was determined as 120 nM.

On to `CN1C(=O)NCc2c(NC(=O)N[C@@H]3C[C@@](C)(C(F)(F)F)Oc4ccccc43)cccc21` [Example 165, 1-(1-methyl-2-oxo-1,2,3,4-tetrahydroquinazolin-5-yl)-3-[(2S,4R)-2-methyl-2-(trifluoromethyl)-3,4-dihydro-2H-chromen-4-yl]urea], for which the “human TRPV1 H^+ (max % remain)” value in test [1] is recorded as 18%. In addition, in test [2], the IC50 was found to be 3 nM.

Consider `CN1C(=O)NCc2c(NC(=O)N[C@@H]3C[C@](C)(C(F)(F)F)Oc4ccccc43)cccc21` [Example 166, 1-(1-methyl-2-oxo-1,2,3,4-tetrahydroquinazolin-5-yl)-3-[(2R,4R)-2-methyl-2-(trifluoromethyl)-3,4-dihydro-2H-chromen-4-yl]urea], for which, in test [1], the “human TRPV1 H^+ (max % remain)” value was determined as 10%. The half-inhibitory concentration (IC50) in test [2] was found to be 1 nM.

Take `CN1Cc2c(NC(=O)N[C@@H]3CC(CF)(CF)Oc4cc(Cl)ccc43)cccc2N(C)C1=O` [Example 167, 1-[(4R)-7-chloro-2,2-bis(fluoromethyl)-3,4-dihydro-2H-chromen-4-yl]-3-(1,3-dimethyl-2-oxo-1,2,3,4-tetrahydroquinazolin-5-yl)urea]: the “human TRPV1 H^+ (max % remain)” value in test [1] amounted to 5%. Besides, in test [2], the 50% inhibitory concentration (IC50) was found to be 5 nM.

Take `CN1C(=O)NCc2c(NC(=O)N[C@@H]3CCOc4ccccc43)cccc21` [Example 168, 1-[(4R)-3,4-dihydro-2H-chromen-4-yl]-3-(1-methyl-2-oxo-1,2,3,4-tetrahydroquinazolin-5-yl)urea]: in test [1], the “human TRPV1 H^+ (max % remain)” value came out at 28%. Moreover, in test [2], the half-inhibitory concentration (IC50) amounted to 1200 nM.

`CN1C(=O)NCc2c(NC(=O)N[C@H]3CCOc4cc(OC(F)(F)F)ccc43)cccc21` [Example 169, 1-(1-methyl-2-oxo-1,2,3,4-tetrahydroquinazolin-5-yl)-3-[(4S)-7-(trifluoromethoxy)-3,4-dihydro-2H-chromen-4-yl]urea]: the “human TRPV1 H^+ (max % remain)” value in test [1] is 96%. In test [2], the IC50 was more than 38000 nM.

As for `CN1Cc2ccc(NC(=O)N[C@@H]3CC(CF)(CF)Oc4cc(Cl)ccc43)cc2NC1=O` [Example 170, 1-[(4R)-7-chloro-2,2-bis(fluoromethyl)-3,4-dihydro-2H-chromen-4-yl]-3-(3-methyl-2-oxo-1,2,3,4-tetrahydroquinazolin-7-yl)urea], the “human TRPV1 H^+ (max % remain)” value in test [1] stood at 16%. The IC50 in test [2] amounted to 130 nM.

Regarding `CN1Cc2ccc(NC(=O)N[C@@H]3C[C@@](C)(C(F)F)Oc4ccccc43)cc2NC1=O` [Example 171, 1-[(2S,4R)-2-(difluoromethyl)-2-methyl-3,4-dihydro-2H-chromen-4-yl]-3-(3-methyl-2-oxo-1,2,3,4-tetrahydroquinazolin-7-yl)urea], the “human TRPV1 H^+ (max % remain)” value in test [1] was found to be 63%. Besides, the concentration for half-maximal inhibition (IC50) in test [2] turned out to be 1300 nM.

For the molecule `CN1Cc2ccc(NC(=O)N[C@@H]3CC(C)(C)Oc4c3ccc(F)c4Cl)cc2NC1=O` [Example 172, 1-[(4R)-8-chloro-7-fluoro-2,2-dimethyl-3,4-dihydro-2H-chromen-4-yl]-3-(3-methyl-2-oxo-1,2,3,4-tetrahydroquinazolin-7-yl)urea], the “human TRPV1 H^+ (max % remain)” value in test [1] was found to be 51%. Moreover, the 50% inhibitory concentration (IC50) in test [2] was 210 nM.

In the case of `CN1Cc2ccc(NC(=O)N[C@@H]3CC(CF)(CF)Oc4cc(C(F)(F)F)ccc43)cc2NC1=O` [Example 173, 1-[(4R)-2,2-bis(fluoromethyl)-7-(trifluoromethyl)-3,4-dihydro-2H-chromen-4-yl]-3-(3-methyl-2-oxo-1,2,3,4-tetrahydroquinazolin-7-yl)urea], in test [1], the “human TRPV1 H^+ (max % remain)” value is reported as 54%. In addition, in test [2], the half-inhibitory concentration (IC50) worked out at 100 nM.

Consider `CN1Cc2ccc(NC(=O)N[C@@H]3CCc4cc(C(F)(F)F)ccc43)cc2NC1=O` [Example 174, 1-(3-methyl-2-oxo-1,2,3,4-tetrahydroquinazolin-7-yl)-3-[(1R)-5-(trifluoromethyl)-2,3-dihydro-1H-inden-1-yl]urea], for which the “human TRPV1 H^+ (max % remain)” value in test [1] worked out at 52%. In test [2], the half-maximal inhibitory concentration (IC50) was 130 nM.

For `CN1Cc2ccc(NC(=O)N[C@@H]3CCOc4ccccc43)cc2NC1=O` [Example 175, 1-[(4R)-3,4-dihydro-2H-chromen-4-yl]-3-(3-methyl-2-oxo-1,2,3,4-tetrahydroquinazolin-7-yl)urea], in test [1], the “human TRPV1 H^+ (max % remain)” value amounted to 62%. Also, the 50% inhibitory concentration (IC50) in test [2] turned out to be 4100 nM.

Consider `CN1Cc2ccc(NC(=O)N[C@@H]3CC(C)(C)Oc4cc(F)ccc43)cc2NC1=O` [Example 176, 1-[(4R)-7-fluoro-2,2-dimethyl-3,4-dihydro-2H-chromen-4-yl]-3-(3-methyl-2-oxo-1,2,3,4-tetrahydroquinazolin-7-yl)urea], for which the “human TRPV1 H^+ (max % remain)” value in test [1] was 50%. Also, the half-maximal inhibitory concentration (IC50) in test [2] was 120 nM.

Turning to `CCC1(CC)C[C@@H](NC(=O)Nc2ccc3c(c2)NC(=O)N(C)C3)c2cccc(F)c2O1` [Example 177, 1-[(4R)-2,2-diethyl-8-fluoro-3,4-dihydro-2H-chromen-4-yl]-3-(3-methyl-2-oxo-1,2,3,4-tetrahydroquinazolin-7-yl)urea], in test [1], the “human TRPV1 H^+ (max % remain)” value was 59%. Also, in test [2], the IC50 amounted to 91 nM.

In the case of `CCC1(CC)C[C@@H](NC(=O)Nc2ccc3c(c2)NC(=O)N(C)C3)c2ccccc2O1` [Example 178, 1-[(4R)-2,2-diethyl-3,4-dihydro-2H-chromen-4-yl]-3-(3-methyl-2-oxo-1,2,3,4-tetrahydroquinazolin-7-yl)urea], the “human TRPV1 H^+ (max % remain)” value in test [1] came to 52%. Besides, the IC50 in test [2] worked out at 72 nM.

As for `CN1Cc2ccc(NC(=O)N[C@@H]3CCc4cc(C(C)(C)C)ccc43)cc2NC1=O` [Example 179, 1-[(1R)-5-tert-butyl-2,3-dihydro-1H-inden-1-yl]-3-(3-methyl-2-oxo-1,2,3,4-tetrahydroquinazolin-7-yl)urea], the “human TRPV1 H^+ (max % remain)” value in test [1] was 37%. In test [2], the half-inhibitory concentration (IC50) is 190 nM.

As to `CCC1(CC)C[C@@H](NC(=O)Nc2ccc3c(c2)NC(=O)N(C)C3)c2ccc(C(F)(F)F)cc2O1` [Example 180, 1-[(4R)-2,2-diethyl-7-(trifluoromethyl)-3,4-dihydro-2H-chromen-4-yl]-3-(3-methyl-2-oxo-1,2,3,4-tetrahydroquinazolin-7-yl)urea], the “human TRPV1 H^+ (max % remain)” value in test [1] is 12%. The concentration for half-maximal inhibition (IC50) in test [2] is 230 nM.

As for `CCC1(CC)C[C@@H](NC(=O)Nc2ccc3c(c2)NC(=O)N(C)C3)c2ccc(Cl)cc2O1` [Example 181, 1-[(4R)-7-chloro-2,2-diethyl-3,4-dihydro-2H-chromen-4-yl]-3-(3-methyl-2-oxo-1,2,3,4-tetrahydroquinazolin-7-yl)urea], the “human TRPV1 H^+ (max % remain)” value in test [1] is recorded as 28%. Further, the concentration for half-maximal inhibition (IC50) in test [2] amounted to 210 nM.
